The values that follow come from US20030130272A1, “Anthracene derivatives as anti-cancer agents” (priority 1999, published 2003).

One assay deals with MAC 15A cells. Briefly: In vitro activity against MAC 15A adenocarcinoma (MTT assay). Format: cell-based. The conditions noted are these: MAC15A colon adenocarcinoma, 96 hours continuous exposure. On the procedure: MAC 15A cells were grown in RPMI 1640 medium supplemented with 10% foetal calf serum containing a 1% antibiotic mixture under standard tissue culture conditions and were maintained at 37° C. in a humidified atmosphere of 5% CO2 in air. Cells were harvested from a stock culture in exponential growth phase and plated in 96-well flat-bottomed plates to achieve a final density of 2×10^3 cells per well. After 2 hours incubation medium was replaced with either fresh medium containing 0.5% DMSO (control) or medium containing test compound dissolved in DMSO at a concentrations from 10 mM to 1 nM. Chemosensitivity was assessed using MTT assay by the method of Plumb et al Cancer Research 49 (1989) 4435-4440.
Following 96 hours continuous exposure to drug at 37° C. cells were incubated with fresh drug-free medium immediately prior to addition of MTT solution (5 mg/ml). Medium and MTT were removed after 4 hours and 150 μl of DMSO was added. For each plate the absorbance of the resulting solution was measured at the analytical wavelength 550 nm for formnazan product, using a Labsystem Mutiskan. IC50 values were obtained from growth curves of drug concentration against % survival and are expressed in μm.
In vitro Cytotoxicity of Spacer Limked Anthraquinone Peptide Conjugates on MAC15A Colon Adenocarcinoma
For orientation: Tetrazolium assays rely on reduction of a dye to a coloured formazan, in cell work by metabolically active cells.

The target of the next assay is T1, topo I (Homo sapiens, UniProt P11387).
T1 sequence (P11387 1-765): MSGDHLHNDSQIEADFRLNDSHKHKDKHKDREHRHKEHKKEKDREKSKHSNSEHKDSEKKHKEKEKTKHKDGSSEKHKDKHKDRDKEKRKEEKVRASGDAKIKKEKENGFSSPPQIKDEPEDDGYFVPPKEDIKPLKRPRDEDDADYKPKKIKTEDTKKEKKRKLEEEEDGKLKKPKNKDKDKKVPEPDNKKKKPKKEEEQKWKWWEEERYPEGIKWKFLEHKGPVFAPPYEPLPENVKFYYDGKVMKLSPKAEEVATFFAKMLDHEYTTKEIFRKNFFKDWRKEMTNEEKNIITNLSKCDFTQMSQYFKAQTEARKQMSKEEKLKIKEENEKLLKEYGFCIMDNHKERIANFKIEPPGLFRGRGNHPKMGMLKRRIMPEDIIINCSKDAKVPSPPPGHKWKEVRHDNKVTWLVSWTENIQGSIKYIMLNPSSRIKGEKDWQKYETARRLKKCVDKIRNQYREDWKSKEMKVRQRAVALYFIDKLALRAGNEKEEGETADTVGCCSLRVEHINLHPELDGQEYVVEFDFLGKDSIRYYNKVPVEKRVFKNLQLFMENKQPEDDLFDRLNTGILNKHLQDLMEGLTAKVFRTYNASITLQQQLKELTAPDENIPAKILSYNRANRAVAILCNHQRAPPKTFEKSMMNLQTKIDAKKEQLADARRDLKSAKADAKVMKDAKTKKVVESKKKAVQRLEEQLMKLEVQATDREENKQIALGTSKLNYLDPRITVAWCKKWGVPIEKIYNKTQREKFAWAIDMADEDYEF
Briefly: Inhibition of topoisomerase I mediated relaxation of pBR322 DNA. It counts as biochemical.

Counter-ions that a name gives are not always drawn.

In the case of “((2S)pyrrolidine-2-yl)-N-[3-(4-{3-[(9,10-dioxoanthryl)amino]propyl}-piperazinyl)propyl]carboxamide trifluoroacetate salt [Example 57]”, in the assay with MAC 15A cells, the concentration for half-maximal inhibition (IC50) – broadly, the midpoint of a concentration-inhibition curve – is 4.6 µM. In addition, the results for the “DNA-topoisomerase activity: inhibition of topo I relaxation” value (“DNA-topoisomerase activity: inhibition” for short) on topo I (at 25 μM) and at topo I (at 50 μM) were “PARTIAL inhibition” and “COMPLETE”, respectively. The compound `CC(C)[C@H](N)C(=O)NC1CCC(Nc2cccc3c2C(=O)c2ccccc2C3=O)CC1` (stereo partly drawn) [Example 36, (2S)-2-amino-N-{4-[(9,10-dioxoanthryl)amino]cyclohexyl}-3-methylbutanamide trifluoroacetate salt] yielded an IC50 with MAC 15A cells of 4.5 µM. For `O=C1c2ccccc2C(=O)c2c1cccc2N1CCC[C@H]1C(=O)O` [Example 6, (2S)-1-(9,10-dioxoanthryl)prrolidine-2-carboxylic acid], the “DNA-topoisomerase activity: inhibition” value at topo I (at 100 μM) is listed as “PARTIAL inhibition at 100 μM”. In turn, `C[C@H](N)C(=O)NC1CCC(Nc2cccc3c2C(=O)c2ccccc2C3=O)CC1` (stereo partly drawn) [Example 32, (2S)-2-amino-N-{4-[(9,10-dioxoanthryl)amino]cyclohexyl}propanamide trifluoroacetate salt] gave an IC50 in the assay with MAC 15A cells of 4.4 µM. As for `C[C@H](N)C(=O)OC1CCN(c2cccc3c2C(=O)c2ccccc2C3=O)CC1.O=C(O)C(F)(F)F` [Example 11, 1-(9,10-dioxoanthryl)-4-piperidyl-(2S)-2-aminopropanoate trifluoroacetate salt], half-maximal inhibition in the assay with MAC 15A cells (IC50) required 14 µM. On topo I (between 25-100 μM), the “DNA-topoisomerase activity: inhibition” value is on record as “NO inhibition between 25-100 μM”. Take `C[C@@H](N)C(=O)NC1CCC(Nc2cccc3c2C(=O)c2ccccc2C3=O)CC1` (stereo partly drawn) [Example 34, (2R)-2-amino-N-{4-[(9,10-dioxoanthryl)amino]cyclohexyl}propanamide trifluoroacetate salt]: the IC50 in the assay on MAC 15A cells is 3.9 µM. Same read-out and setting: in the case of `NCCC(=O)NC1CCCCC1Nc1cccc2c1C(=O)c1ccccc1C2=O` (centres unmarked) [Example 68, 3-amino-N-{2-[(9,10-dioxoanthryl)amino]cyclohexyl}propanamide trifluoroacetate salt] it was 6.2 µM; in that of `C[C@H](N)C(=O)N1CCN(c2cccc3c2C(=O)c2cccc(N4CCN(C(=O)[C@H](C)N)CC4)c2C3=O)CC1` [Example 23, 1,5-bis(1-L-alanylpiperazinyl)anthracene-9,10-dione trifluoroacetate salt], 15 µM.

In the case of `C[C@H](N)C(=O)NC1CCCCC1Nc1cccc2c1C(=O)c1ccccc1C2=O.O=C(O)C(F)(F)F` (stereo partly drawn) [Example 66, (2S)-2-amino-N-{2-[(9,10-dioxoanthryl)amino]cyclohexyl}propanamide trifluoroacetate salt], half-maximal inhibition with MAC 15A cells (IC50) required 6.7 µM. For the same compound, the “DNA-topoisomerase activity: inhibition” value is reported as “COMPLETE inhibition at 10 μM; concentrations” at topo I (at 10 μM) and “above this value antagonised inhibitory activity” at topo I (concentrations above 10 μM). Regarding `NCCCC[C@H](N)C(=O)N1CCN(c2cccc3c2C(=O)c2ccccc2C3=O)CC1` [Example 79, 1-[4-((2S)-2-6-diaminohexanoyl)piperazinyl]anthracene-9,10-dione bis trifluoroacetate salt], the IC50 in the assay on MAC 15A cells was 28 µM.

`N[C@@H](Cc1ccc(O)cc1)C(=O)NCCCN1CCN(CCCNc2cccc3c2C(=O)c2ccccc2C3=O)CC1.O=C(O)C(F)(F)F` [Example 63, (2S)-2-amino-N-[3-(4-{3-[(9,10-dioxoanthryl)amino]propyl}-piperazinyl)propyl]-3-(4-hydroxyphenyl)propanamide trifluoroacetate salt]: the entries for the “DNA-topoisomerase activity: inhibition” value on topo I (at 25 μM) and on topo I (at 50 μM) were “PARTIAL inhibition” and “COMPLETE”, respectively.

`CC(C)[C@H](N)C(=O)NCCCN1CCN(CCCNc2cccc3c2C(=O)c2ccccc2C3=O)CC1.O=C(O)C(F)(F)F` [Example 55, (2S)-2-amino-N-[3-(4-{3-[(9,10-dioxoanthryl)amino]propyl}-piperazinyl)propyl]-3-methylbutanamide trifluoroacetate salt]: the “DNA-topoisomerase activity: inhibition” value on topo I (at 25 μM) is “PARTIAL inhibition”; at topo I (at 50 μM) it was “COMPLETE”. In the assay with MAC 15A cells, `N[C@H](Cc1ccccc1)C(=O)NCCCN1CCN(CCCNc2cccc3c2C(=O)c2ccccc2C3=O)CC1` [Example 61, (2R)-2-amino-N-[3-(4-{3-[(9,10-dioxoanthryl)amino]propyl}-piperazinyl)propyl]-3-phenylpropanamide trifluoroacetate salt] displayed an IC50 of 3.8 µM. `N[C@@H](Cc1ccc(Cl)cc1)C(=O)NC1CCC(Nc2cccc3c2C(=O)c2ccccc2C3=O)CC1` (stereo partly drawn) [Example 94, (2S)-2-amino-N-{4-[(9,10-dioxoanthryl)amino]cyclohexyl}-3-(4-chlorophenyl)propanamide trifluoroacetate salt]: inhibition with MAC 15A cells was half-maximal at 1 µM (IC50). Still for that read-out and setting: the value for `N[C@@H](Cc1ccccc1Cl)C(=O)NC1CCC(Nc2cccc3c2C(=O)c2ccccc2C3=O)CC1` (stereo partly drawn) [Example 44, (2S)-2-amino-N-{4-[(9,10-dioxoanthryl)amino]cyclohexyl}-3-(2-chlorophenyl)propanamide trifluoroacetate salt] was 3 µM.

Regarding `NCC(=O)NCCCN1CCN(CCCNc2cccc3c2C(=O)c2ccccc2C3=O)CC1.O=C(O)C(F)(F)F.O=C(O)C(F)(F)F.O=C(O)C(F)(F)F` [Example 49, 2-amino-N-[3-(4-{3-[(9,10-dioxoanthryl)amino]propyl}piperazinyl)-propyl]acetamide tri-trifluoroacetate salt], the “DNA-topoisomerase activity: inhibition” value at topo I (at 25 μM) is “PARTIAL inhibition”; on topo I (at 50 μM), “COMPLETE”. For `C[C@H](NC(=O)OC(C)(C)C)C(=O)N1CCN(c2cccc3c2C(=O)c2ccccc2C3=O)CC1` [Example 16, 1-(1-N-tertiarybutoxycarbonyl-L-alanylpiperazinyl)anthracene-9,10-dione], the “DNA-topoisomerase activity: inhibition” value at topo I (between 25-100 μM) is recorded as “NO inhibition between 25-100 μM”.

In the assay with MAC 15A cells, `NCC(=O)Nc1ccc(Nc2cccc3c2C(=O)c2ccccc2C3=O)cc1` [Example 70, 2-amino-N-{4-[(9,10-dioxoanthryl)amino]phenyl}acetamide trifluoroacetate salt] had an IC50 of 2.2 µM. `N[C@H](Cc1ccccc1Cl)C(=O)NC1CCC(Nc2cccc3c2C(=O)c2ccccc2C3=O)CC1` (stereo partly drawn) [Example 46, (2R)-2-amino-N-{4-[(9,10-dioxoanthryl)amino]cyclohexyl}-3-(2-chloro-phenyl)propanamide trifluoroacetate salt] had an IC50 in the assay with MAC 15A cells of 4.1 µM. `C[C@H](N)C(=O)OC[C@@H]1CCCN1c1cccc2c1C(=O)c1ccccc1C2=O` [Example 13, [(2S)]-1-(9,10-dioxoanthryl)pyrrolidin-2-yl]methyl (2S)-2-aminopropanoate trifluoroacetate salt] registered a half-inhibitory concentration (IC50) with MAC 15A cells of 22 µM. On the same count and under the same terms, in the case of `C[C@@H](N)C(=O)NCCCN1CCN(CCCNc2cccc3c2C(=O)c2ccccc2C3=O)CC1` [Example 53, (2R)-2-amino-N-[3-(4-{3-[(9,10-dioxoanthryl)amino]propyl}-piperazinyl)propyl]propanamide trifluoroacetate salt] it was 4.9 µM; in that of `NCC(=O)NC1CCC(Nc2cccc3c2C(=O)c2ccccc2C3=O)CC1` (centres unmarked) [Example 30, 2-amino-N-{4-[(9,10-dioxoanthryl)amino]cyclohexyl}acetamide trifluoroacetate salt], 6 µM. Same read-out and setting: in the case of `CC(C)[C@@H](N)C(=O)NC1CCC(Nc2cccc3c2C(=O)c2ccccc2C3=O)CC1` (stereo partly drawn) [Example 38, (2R)-2-amino-N-{4-[(9,10-dioxoanthryl)amino]cyclohexyl}-3-methylbutanamide trifluoroacetate salt] it was 4.2 µM; in that of `O=C1c2ccccc2C(=O)c2c(NC3CCC(NC(=O)[C@@H]4CCCN4)CC3)cccc21` (stereo partly drawn) [Example 40, ((2S)pyrrolidin-2-yl)-N-{4-[(9,10-dioxoanthryl)amino]cyclohexyl}-carboxamide trifluoroacetate salt], 4.2 µM.
